Experimental data as given in PMC12587545, “Noncytotoxic polymyxin derivatives enhance antibiotic action against multidrug-resistant Gram-negative bacteria” (Antimicrobial Agents and Chemotherapy, 2025).
“And” between values parts separate entries of the source, which are not always exact repeats. Identical values can stand only once.

How the values were obtained:
[1] = system: E. coli; experiment: Checkerboard assay (antibiotic potentiation); format: cell-based, Escherichia coli; conditions: for Interpretation: antibiotic + compound 1; for MICantibiotic + compound: antibiotic MIC with 8 µg/mL (5 µM) compound 1; for MICantibiotic: antibiotic alone; for Potentiation: of antibiotic by 8 µg/mL (5 µM) compound 1
Description: (§1) The interaction between the compounds and the antibiotics was evaluated using the fractional inhibitory concentration (FIC) index. FIC indices of ≤0.5 is synergistic, 0.5 < × ≤ 4 is additive, whereas >4 is antagonistic ([34]).
(§2) Synergy was measured by the FIC index, which is the summation of the individual FICs of the antibiotic and the compound. The FIC is calculated by dividing the MIC of one agent in the presence of another by the MIC of the agent alone. […] The FBS studies were conducted by following a previously published protocol ([29], [50]). The FBS was inactivated by heating at 56°C for 30 min with constant swirling.

[2] = system: A. baumannii; experiment: Checkerboard assay (antibiotic potentiation); format: cell-based, Acinetobacter baumannii; design: key to FIC index: sum of FICs; ≤0.5 synergistic, 0.5–4 additive, >4 antagonistic; conditions: for MICantibiotic: antibiotic alone
Description: (§3) The interaction between the compounds and the antibiotics was evaluated using the fractional inhibitory concentration (FIC) index. FIC indices of ≤0.5 is synergistic, 0.5 < × ≤ 4 is additive, whereas >4 is antagonistic ([34]). […] .
(§4) The bacterial isolates were acquired from ATCC or the Canadian Ward Surveillance (CANWARD) study ([56]). CANWARD isolates were collected from infected patients admitted to participating medical centers across Canada.
(§5) The antibiotic and compounds were serially diluted 2-fold in CAMHB along the x- and y-axis, respectively, on a 96-well plate that was subsequently incubated with equal volumes of bacterial inoculum overnight at 37°C. Wells containing only media were used as negative controls, and wells containing only bacteria were used as positive controls. Synergy was measured by the FIC index, which is the summation of the individual FICs of the antibiotic and the compound. The FIC is calculated by dividing the MIC of one agent in the presence of another by the MIC of the agent alone. Turbidity was confirmed with a Molecular Devices (United States) EMax Plus microplate reader at a wavelength of 590 nm. The FBS studies were conducted by following a previously published protocol ([29], [50]). The FBS was inactivated by heating at 56°C for 30 min with constant swirling.

[3] = system: P. aeruginosa; experiment: Checkerboard assay (antibiotic potentiation); format: cell-based, Pseudomonas aeruginosa; conditions: for MICantibiotic: antibiotic alone
Description: as §1, §2

[4] = system: MDR Gram-negative bacteria clinical isolates; experiment: Checkerboard assay, summary over strains; format: cell-based; conditions: of all 14 clinical isolates; number (%)
Description: as §1, §5

[5] = system: K. pneumoniae; experiment: Checkerboard assay (antibiotic potentiation); format: cell-based, Klebsiella pneumoniae; conditions: for MICantibiotic + compound: antibiotic MIC with 8 µg/mL (5 µM) compound 1; for MICantibiotic: antibiotic alone
Description: as §1, §2

[6] = system: E. cloacae; experiment: Checkerboard assay (antibiotic potentiation); format: cell-based, Enterobacter cloacae; conditions: E. cloacae 121887 (colistin-resistant)
Description: as §3, §4, §5

[7] = E. coli 94393 (colistin-resistant)
[8] = E. coli 94474 (colistin-resistant)
[9] = A. baumannii 110193, antibiotic + compound 1
[10] = A. baumannii ATCC 17978, antibiotic + compound 1
[11] = P. aeruginosa 262-101856, antibiotic + compound 1
[12] = P. aeruginosa 264-105354, antibiotic + compound 1
[13] = P. aeruginosa 114228 (colistin-resistant), antibiotic + compound 1
[14] = K. pneumoniae 113250 (colistin-resistant)

- MICantibiotic + compound [1, 7]: 0.125 µg/mL
- MICantibiotic [1, 7]: 0.5 µg/mL
- MICantibiotic + compound [1, 8]: 8 µg/mL
- MICantibiotic [1, 8]: 64 µg/mL
- MICantibiotic + compound ([2]; A. baumannii 92247 (colistin-resistant), antibiotic MIC with 4 µg/mL (2 µM) compound 1): 0.25 µg/mL
- MICantibiotic ([2]; A. baumannii 92247 (colistin-resistant)): 0.25 µg/mL
- MICantibiotic + compound ([2]; A. baumannii 110193, antibiotic MIC with 4 µg/mL (2 µM) compound 1): 2 µg/mL
- MICantibiotic ([2]; A. baumannii 110193): 2 µg/mL
- MICantibiotic + compound ([2]; A. baumannii AB027, antibiotic MIC with 4 µg/mL (2 µM) compound 1): 1 µg/mL
- MICantibiotic ([2]; A. baumannii AB027): 2 µg/mL
- MICantibiotic + compound ([2]; A. baumannii AB031, antibiotic MIC with 4 µg/mL (2 µM) compound 1): 1 µg/mL
- MICantibiotic ([2]; A. baumannii AB031): 2 µg/mL
- MICantibiotic + compound ([2]; A. baumannii ATCC 17978, antibiotic MIC with 8 µg/mL (5 µM) compound 3): 0.125 µg/mL
- MICantibiotic + compound ([2]; A. baumannii ATCC 17978, antibiotic MIC with ¼ MIC (≤5 µM) of compound 1): 0.004 µg/mL
- MICantibiotic + compound ([3]; P. aeruginosa 259-96916, antibiotic MIC with 8 µg/mL (5 µM) compound 1): 0.5 µg/mL
- MICantibiotic ([3]; P. aeruginosa 259-96916): 64 µg/mL
- MICantibiotic + compound ([3]; P. aeruginosa 262-101856, antibiotic MIC with 8 µg/mL (5 µM) compound 1): 2 µg/mL
- MICantibiotic ([3]; P. aeruginosa 262-101856): >128 µg/mL
- MICantibiotic + compound ([3]; P. aeruginosa 264-105354, antibiotic MIC with 8 µg/mL (5 µM) compound 1): 0.5 µg/mL
- MICantibiotic ([3]; P. aeruginosa 264-105354): >64 µg/mL
- MICantibiotic + compound ([3]; P. aeruginosa 101243 (colistin-resistant), antibiotic MIC with 8 µg/mL (5 µM) compound 1): 4 µg/mL
- MICantibiotic ([3]; P. aeruginosa 101243 (colistin-resistant)): 16 µg/mL
- MICantibiotic + compound ([3]; P. aeruginosa 114228 (colistin-resistant), antibiotic MIC with 8 µg/mL (5 µM) compound 1): 16 µg/mL
- MICantibiotic ([3]; P. aeruginosa 114228 (colistin-resistant)): >64 µg/mL
- MICantibiotic + compound ([3]; P. aeruginosa PAO1, antibiotic MIC with 8 µg/mL (5 µM) compound 1): 0.5 µg/mL
- MICantibiotic + compound ([3]; P. aeruginosa PAO1, antibiotic MIC with 8 µg/mL (5 µM) compound 3): 64 µg/mL
- MICantibiotic ([3]; P. aeruginosa PAO1): 64 µg/mL and 32 µg/mL
- MICantibiotic + compound [5, 14]: >4 µg/mL
- MICantibiotic [5, 14]: >4 µg/mL
- MICantibiotic + compound ([5]; K. pneumoniae 116381): 4 µg/mL
- MICantibiotic ([5]; K. pneumoniae 116381): 128 µg/mL
- MICantibiotic + compound ([6]; antibiotic MIC with 8 µg/mL (5 µM) compound 1): 0.5 µg/mL
- MICantibiotic ([6]; antibiotic alone): 0.5 µg/mL
Structure (SMILES): CN(C)c1ccc(O)c2c1C[C@H]1C[C@H]3[C@H](N(C)C)C(O)=C(C(N)=O)C(=O)[C@@]3(O)C(O)=C1C2=O [Minocycline]
- Interpretation [1, 7]: Synergy (FIC indices of ≤0.5 is synergistic)
- Potentiation [1, 7]: 4 fold
- Interpretation [1, 8]: Synergy (FIC indices of ≤0.5 is synergistic)
- Potentiation [1, 8]: 8 fold
- Interpretation ([2]; A. baumannii 92247 (colistin-resistant), antibiotic + compound 1): Additive (0.5 < × ≤ 4 is additive)
- Potentiation ([2]; A. baumannii 92247 (colistin-resistant), of antibiotic by 4 µg/mL (2 µM) compound 1): 1 fold
- FIC index [2, 9]: 0.75
- Interpretation [2, 9]: Additive (0.5 < × ≤ 4 is additive)
- Potentiation ([2]; A. baumannii 110193, of antibiotic by 4 µg/mL (2 µM) compound 1): 1 fold
- Interpretation ([2]; A. baumannii AB027, antibiotic + compound 1): Additive (0.5 < × ≤ 4 is additive)
- Potentiation ([2]; A. baumannii AB027, of antibiotic by 4 µg/mL (2 µM) compound 1): 2 fold
- Interpretation ([2]; A. baumannii AB031, antibiotic + compound 1): Additive (0.5 < × ≤ 4 is additive)
- Potentiation ([2]; A. baumannii AB031, of antibiotic by 4 µg/mL (2 µM) compound 1): 2 fold
- FIC index [2, 10]: 0.254
- Interpretation [2, 10]: Synergy (FIC indices of ≤0.5 is synergistic)
- Interpretation ([2]; A. baumannii ATCC 17978, antibiotic + compound 3): Additive (0.5 < × ≤ 4 is additive)
- Potentiation ([2]; A. baumannii ATCC 17978, of antibiotic by 8 µg/mL (5 µM) compound 3): 1 fold
- Potentiation ([2]; A. baumannii ATCC 17978, of antibiotic by ¼ MIC (≤5 µM) of compound 1): 256 fold
- Interpretation ([3]; P. aeruginosa 259-96916, antibiotic + compound 1): Synergy (FIC indices of ≤0.5 is synergistic)
- Potentiation ([3]; P. aeruginosa 259-96916, of antibiotic by 8 µg/mL (5 µM) compound 1): 128 fold
- FIC index [3, 11]: x < 0.078
- Interpretation [3, 11]: Synergy (FIC indices of ≤0.5 is synergistic)
- Potentiation ([3]; P. aeruginosa 262-101856, of antibiotic by 8 µg/mL (5 µM) compound 1): ≥128-fold
- FIC index [3, 12]: x < 0.070
- Interpretation [3, 12]: Synergy (FIC indices of ≤0.5 is synergistic)
- Potentiation ([3]; P. aeruginosa 264-105354, of antibiotic by 8 µg/mL (5 µM) compound 1): ≥256-fold
- Interpretation ([3]; P. aeruginosa 101243 (colistin-resistant), antibiotic + compound 1): Synergy (FIC indices of ≤0.5 is synergistic)
- Potentiation ([3]; P. aeruginosa 101243 (colistin-resistant), of antibiotic by 8 µg/mL (5 µM) compound 1): 4 fold
- FIC index [3, 13]: x < 0.313
- Interpretation [3, 13]: Synergy (FIC indices of ≤0.5 is synergistic)
- Potentiation ([3]; P. aeruginosa 114228 (colistin-resistant), of antibiotic by 8 µg/mL (5 µM) compound 1): ≥8-fold
- Interpretation ([3]; P. aeruginosa PAO1, antibiotic + compound 1): Synergy (FIC indices of ≤0.5 is synergistic)
- Interpretation ([3]; P. aeruginosa PAO1, antibiotic + compound 3): Additive (0.5 < × ≤ 4 is additive)
- Potentiation ([3]; P. aeruginosa PAO1, of antibiotic by 8 µg/mL (5 µM) compound 1): 64 fold
- Potentiation ([3]; P. aeruginosa PAO1, of antibiotic by 8 µg/mL (5 µM) compound 3): 1 fold
- clinical isolates in which the antibiotic was synergized by compound 1 [4]: 8 (57%) strains
- Interpretation ([5]; K. pneumoniae 116381, antibiotic + compound 1): Synergy (FIC indices of ≤0.5 is synergistic)
- Potentiation ([5]; K. pneumoniae 116381, of antibiotic by 8 µg/mL (5 µM) compound 1): 32 fold
- Interpretation ([6]; antibiotic + compound 1): Additive (0.5 < × ≤ 4 is additive)
- Potentiation ([6]; of antibiotic by 8 µg/mL (5 µM) compound 1): 1 fold
